The source of these data is patent publication US10865216B2, “Tricyclic Gyrase inhibitors” (MERCK SHARP & DOHME CORP., priority 2012, dated 2020).

For one assay, the system named is S. aureus ATCC 13709. In words: MIC, S. aureus ATCC 13709. The format is cell-based. The following applies: for MIC: Staphylococcus aureus, ATCC13709, S. aureus, read-out: MIC Sa.
The test system of the next assay is E. coli ATCC 25922. In words: MIC, E. coli ATCC 25922. The format is cell-based. The following applies: for MIC: Escherichia coli, ATCC25922, E. coli, read-out: MIC Ec.
Setting [1] is: Alamar Blue read after overnight incubation at 35° C.
Setting [2] is: S. aureus, Alamar Blue read after overnight incubation at 35° C.
The mark [3] stands for this setting: E. coli, Alamar Blue read after overnight incubation at 35° C.

The structures appear in SMILES notation. Converted amounts (≈) assume the structure as drawn.

As a reminder, the MIC is the smallest concentration in the dilution series that meets the test's criterion for growth inhibition. Turning to `CNc1cccc2c1[nH]c1nc(Sc3cnc4cccnc4c3)nc(N3C[C@H](N)C[C@H]3C)c12` [Compound 1.61], the MIC with S. aureus ATCC 13709 (setting [1]) came out at 8 µg/mL (≈ 17.5 µM); in the assay on E. coli ATCC 25922 (setting [1]), 64 µg/mL (≈ 140 µM).
Take `CCc1ncc(Oc2nc(N3CC4CC4(CN)C3)c3c(n2)[nH]c2c(NC)cc(F)cc23)cn1` (stereo not drawn) [Compound 4.261]: in the assay on S. aureus ATCC 13709 (setting [2]), the “MIC Sa” value is no more than 0.5 µg/mL. The “MIC Ec” value in the assay with E. coli ATCC 25922 (setting [3]) is 1 µg/mL (≈ 2.23 µM).
In the assay on S. aureus ATCC 13709 (Table 12, Z is C and connected to R4), `CNc1cc(F)c2c3c1[nH]c1nc(Oc4cncnc4)nc(c13)-c1ccccc1NC2` gave an SA MIC of no more than 0.5 µg/mL. The compound further displayed an EC8 MIC in the assay with E. coli ATCC 25922 (Table 12, Z is C and connected to R4, EC8 not defined) greater than 16 µg/mL.
For the compound `CNc1cccc2c1[nH]c1nc(Sc3cnc4ccc[n+]([O-])c4c3)nc(N3CC4CNC4C3)c12` (stereo not drawn) [Compound 1.32], the values for the MIC with S. aureus ATCC 13709 (setting [1]) and with E. coli ATCC 25922 (setting [1]) were no more than 0.5 µg/mL and 4 µg/mL (≈ 8.5 µM), respectively.
Take `CNc1cc(F)cc2c1[nH]c1nc(Oc3cnc(C)nc3)nc(-c3cc(CN)ccc3F)c12` [Compound 4.446]: the MIC in the assay on S. aureus ATCC 13709 (setting [1]) came out at 2 µg/mL (≈ 4.47 µM); with E. coli ATCC 25922 (setting [1]) it was 8 µg/mL (≈ 17.9 µM).
On to `CNc1cc(F)cc2c1[nH]c1nc(Oc3cnc(N)nc3)nc(N3CC4CCNC4C3)c12` (stereo not drawn) [Compound 4.187], for which the “MIC Sa” value in the assay on S. aureus ATCC 13709 (setting [2]) was no more than 0.5 µg/mL. Further, the “MIC Ec” value with E. coli ATCC 25922 (setting [3]) was 2 µg/mL (≈ 4.59 µM).
In the case of `CNc1cc(F)cc2c1[nH]c1nc(Oc3cnc(N4CCN(C(C)=O)CC4)nc3)nc(N3CC[C@@H](N)C3)c12` [Compound 4.229], the “MIC Sa” value against S. aureus ATCC 13709 (setting [2]) was no more than 0.5 µg/mL. Moreover, the “MIC Ec” value in the assay with E. coli ATCC 25922 (setting [3]) is 2 µg/mL (≈ 3.84 µM).
Take `CNc1cc(F)cc2c1[nH]c1nc(Oc3cnc(C)nc3)nc(N3CCC4(CNC4)C3)c12` [Compound 4.125]: the “MIC Sa” value in the assay with S. aureus ATCC 13709 (setting [2]) was no more than 0.5 µg/mL. In addition, the “MIC Ec” value in the assay on E. coli ATCC 25922 (setting [3]) turned out to be 4 µg/mL (≈ 9.21 µM).
As to `CNc1cc(F)cc2c1[nH]c1nc(Oc3cnc(-c4nccn4C)nc3)nc(N3C[C@H](N)C4(CC4)C3)c12` [Compound 4.399], the “MIC Sa” value in the assay with S. aureus ATCC 13709 (setting [2]) is no more than 0.5 µg/mL. The “MIC Ec” value with E. coli ATCC 25922 (setting [3]) stood at 2 µg/mL (≈ 4 µM).
`CNc1cc(F)c(C)c2c1[nH]c1nc(Oc3cnc(C)nc3)nc(NCCCN)c12` [Compound 6.21]: the “MIC Sa” value against S. aureus ATCC 13709 (setting [2]) is greater than 16 µg/mL. Besides, in the assay with E. coli ATCC 25922 (setting [3]), the “MIC Ec” value is greater than 16 µg/mL.
As for `CNc1cccc2c1[nH]c1nc(Oc3cncnc3)cc(N3C[C@H](NCC4CC4)C4(CC4)C3)c12` [Compound 3.12], the MIC in the assay with S. aureus ATCC 13709 (setting [1]) was 1 µg/mL (≈ 2.2 µM); in the assay on E. coli ATCC 25922 (setting [1]), 8 µg/mL (≈ 17.6 µM).
Consider `CNc1cc(F)cc2c1[nH]c1nc(Oc3cnc(C(C)(C)C)nc3)nc(N3CC4C(N)C4C3)c12` (stereo not drawn) [Compound 4.314], for which, in the assay on S. aureus ATCC 13709 (setting [2]), the “MIC Sa” value is no more than 0.5 µg/mL. Further, the “MIC Ec” value against E. coli ATCC 25922 (setting [3]) was no more than 0.5 µg/mL.
For the compound `CCc1ncc(Oc2nc(N3CC4C(N)C4C3)c3c(n2)[nH]c2c(NC)cc(F)cc23)cn1` (stereo not drawn) [Compound 4.258], the “MIC Sa” value against S. aureus ATCC 13709 (setting [2]) is no more than 0.5 µg/mL. Further, the “MIC Ec” value with E. coli ATCC 25922 (setting [3]) was no more than 0.5 µg/mL.
In the case of `CNc1cc(F)cc2c1[nH]c1nc(Oc3cnc(SC)nc3)nc(N3CCC(N)C3)c12` (stereo not drawn) [Compound 4.199], the “MIC Sa” value with S. aureus ATCC 13709 (setting [2]) is no more than 0.5 µg/mL. Besides, in the assay with E. coli ATCC 25922 (setting [3]), the “MIC Ec” value was no more than 0.5 µg/mL.
For the compound `CNc1cc(F)cc2c1[nH]c1nc(Oc3ccc4c(c3)C(=O)NCC4)nc(N3CC4C(N)C4C3)c12` (stereo not drawn) [Compound 4.301], in the assay on S. aureus ATCC 13709 (setting [2]), the “MIC Sa” value was no more than 0.5 µg/mL. Moreover, the “MIC Ec” value against E. coli ATCC 25922 (setting [3]) was found to be 1 µg/mL (≈ 2.11 µM).
As to `CNc1cc(F)cc2c1[nH]c1nc(Oc3cnc(C)nc3)nc(N3CC4CCNC4C3)c12` (stereo not drawn) [Compound 4.094], the “MIC Sa” value with S. aureus ATCC 13709 (setting [2]) is no more than 0.5 µg/mL. For the same compound, the “MIC Ec” value in the assay on E. coli ATCC 25922 (setting [3]) was no more than 0.5 µg/mL.
For the compound `CNc1cc(F)cc2c1[nH]c1nc(Oc3cncnc3)nc(N3CC(N)CC3C)c12` (stereo not drawn) [Compound 4.029], the “MIC Sa” value with S. aureus ATCC 13709 (setting [2]) is 4 µg/mL (≈ 9.79 µM). For the same compound, in the assay with E. coli ATCC 25922 (setting [3]), the “MIC Ec” value amounted to 16 µg/mL (≈ 39.2 µM).
For the compound `CNc1cccc2c1[nH]c1nc(Oc3ccc[n+]([O-])c3)cc(Oc3cnc(C)nc3)c12` [Compound 3.39], the MIC with S. aureus ATCC 13709 (setting [1]) is 2 µg/mL (≈ 4.83 µM); in the assay with E. coli ATCC 25922 (setting [1]) it was 64 µg/mL (≈ 154 µM).
With `CNc1cc(F)cc2c1[nH]c1nc(Oc3cnc(C)nc3)nc(-c3cncnc3)c12` [Compound 4.449], the MIC with S. aureus ATCC 13709 (setting [1]) is no more than 0.5 µg/mL; in the assay on E. coli ATCC 25922 (setting [1]) it was greater than 16 µg/mL.
The matching figures for `CNc1cccc2c1[nH]c1nc(Oc3cnc4cccnc4c3)cc(N3CC4C(N)C4C3)c12` (stereo not drawn) [Compound 3.34]: no more than 0.5 µg/mL and no more than 0.5 µg/mL.
Regarding `CNc1cc(F)cc2c1[nH]c1nc(Oc3cnc(C)nc3)nc(N3CCC4(CC3)CC4CN)c12` (stereo not drawn) [Compound 10.80], the MIC Sa against S. aureus ATCC 13709 (Table 18, Sa) amounted to 0.06 µg/mL (≈ 0.13 µM). In the assay with E. coli ATCC 25922 (Table 18, Ec), the MIC Ec is 2 µg/mL (≈ 4.32 µM).
Take `CNc1cc(F)cc2c1[nH]c1nc(Oc3cnc(C#N)c(C)c3)nc(N3CC4(CCC4N)C3)c12` (stereo not drawn) [Compound 4.326]: in the assay with S. aureus ATCC 13709 (setting [2]), the “MIC Sa” value was no more than 0.5 µg/mL. The “MIC Ec” value against E. coli ATCC 25922 (setting [3]) was no more than 0.5 µg/mL.
As to `CNc1cc(F)cc2c1[nH]c1nc(Oc3cnc4cccnc4c3)nc(N3CC4CC(N)CC4C3)c12` (stereo not drawn) [Compound 4.046], the “MIC Sa” value against S. aureus ATCC 13709 (setting [2]) is no more than 0.5 µg/mL. Moreover, in the assay on E. coli ATCC 25922 (setting [3]), the “MIC Ec” value was determined as 1 µg/mL (≈ 2.06 µM).
With `CNc1cc(F)cc2c1[nH]c1nc(Oc3cnc(N)nc3)nc(N3CC4C(CN)C4C3)c12` (stereo not drawn) [Compound 4.188], the “MIC Sa” value in the assay on S. aureus ATCC 13709 (setting [2]) is no more than 0.5 µg/mL. For the same compound, the “MIC Ec” value with E. coli ATCC 25922 (setting [3]) was found to be 8 µg/mL (≈ 18.4 µM).
